From ChEMBL document CHEMBL1201862, “PubChem BioAssay data set” (2004) come the findings set out here.

Active and inactive are the calls of the source.

For data set [1], the target named is T1, Microphthalmia-associated transcription factor (Homo sapiens, UniProt O75030).
T1 sequence (O75030 whole entry): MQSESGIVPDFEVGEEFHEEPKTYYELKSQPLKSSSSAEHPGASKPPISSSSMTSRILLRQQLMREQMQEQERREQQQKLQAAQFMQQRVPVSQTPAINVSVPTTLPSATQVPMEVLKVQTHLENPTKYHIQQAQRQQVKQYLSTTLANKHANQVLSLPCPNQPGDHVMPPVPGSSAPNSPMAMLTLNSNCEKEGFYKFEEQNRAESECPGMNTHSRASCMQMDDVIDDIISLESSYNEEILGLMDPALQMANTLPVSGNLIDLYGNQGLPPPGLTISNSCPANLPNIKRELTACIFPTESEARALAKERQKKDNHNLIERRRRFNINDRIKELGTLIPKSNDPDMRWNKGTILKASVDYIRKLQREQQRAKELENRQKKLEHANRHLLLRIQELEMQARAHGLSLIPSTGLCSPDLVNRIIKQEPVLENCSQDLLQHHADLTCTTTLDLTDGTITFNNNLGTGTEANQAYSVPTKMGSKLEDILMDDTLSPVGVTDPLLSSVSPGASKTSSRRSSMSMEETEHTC
The experiment in a line: reducers of TRPM1 reporter luminescence, concentration series – cell-based, SK-MEL-5, cherry-picked, set 3, MITF inhibitor project, dose response (AID 493073).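 Further: SK-MEL-5 melanoma cells with luciferase driven by the MITF target TRPM1 promoter.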 In kind it is functional.

A further data set relates to A-375. Description: MITF: Counter assay: A375 proliferation Measured in Cell-Based System Using Plate Reader - 2084-03_Inhibitor_Dose_DryPowder_Activity. [Related pubchem assays (depositor defined):AID488944]. In kind it is functional. The conditions noted are these: Homo sapiens.
The target in data set [2] is T2, Low molecular weight phosphotyrosine protein phosphatase (Homo sapiens, UniProt P24666).
T2 sequence (P24666 whole entry): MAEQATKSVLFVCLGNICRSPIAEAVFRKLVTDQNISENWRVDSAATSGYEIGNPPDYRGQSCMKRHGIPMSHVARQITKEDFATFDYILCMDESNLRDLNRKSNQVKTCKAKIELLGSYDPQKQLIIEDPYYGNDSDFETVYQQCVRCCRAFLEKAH
In kind it is functional. The conditions noted are these: read-out: IC50_Mean.

For data set [3], the target named is T3, Probable nicotinate-nucleotide adenylyltransferase (Staphylococcus aureus (strain N315), UniProt P65502). In kind it is functional, Staphylococcus aureus subsp. aureus N315.
T3 sequence (P65502 whole entry): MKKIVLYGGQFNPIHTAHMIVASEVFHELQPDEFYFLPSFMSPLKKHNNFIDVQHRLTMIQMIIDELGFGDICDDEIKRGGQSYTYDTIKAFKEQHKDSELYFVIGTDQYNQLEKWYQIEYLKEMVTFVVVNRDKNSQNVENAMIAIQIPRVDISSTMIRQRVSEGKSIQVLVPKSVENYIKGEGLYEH
Data set [4] concerns the target T3, Probable nicotinate-nucleotide adenylyltransferase. In kind it is functional, Staphylococcus aureus subsp. aureus N315. The conditions noted are these: read-out: IC50_Mean.
A short description of data set [5]: Late-stage probe development counterscreen for inhibitors of the Hepatitis C Virus non-structural protein 3 helicase (NS3): luminescence-based cell-based dose response assay to determine whether compounds that inhibit replication of HCV RNA replicon are cytotoxic. [Related pubchem assays (depositor defined):AID1800, AID1830, AID1845, AID1943, AID1945, AID2172, AID2173, AID2474, AID2476]. In kind it is functional.

The target in another data set is NS3 (Hepatitis C virus, UniProt A3EZJ3). Description: PubChem AID 2173. More on the design: species or system Hepacivirus hominis.
Chain of NS3 (A3EZJ3 whole entry): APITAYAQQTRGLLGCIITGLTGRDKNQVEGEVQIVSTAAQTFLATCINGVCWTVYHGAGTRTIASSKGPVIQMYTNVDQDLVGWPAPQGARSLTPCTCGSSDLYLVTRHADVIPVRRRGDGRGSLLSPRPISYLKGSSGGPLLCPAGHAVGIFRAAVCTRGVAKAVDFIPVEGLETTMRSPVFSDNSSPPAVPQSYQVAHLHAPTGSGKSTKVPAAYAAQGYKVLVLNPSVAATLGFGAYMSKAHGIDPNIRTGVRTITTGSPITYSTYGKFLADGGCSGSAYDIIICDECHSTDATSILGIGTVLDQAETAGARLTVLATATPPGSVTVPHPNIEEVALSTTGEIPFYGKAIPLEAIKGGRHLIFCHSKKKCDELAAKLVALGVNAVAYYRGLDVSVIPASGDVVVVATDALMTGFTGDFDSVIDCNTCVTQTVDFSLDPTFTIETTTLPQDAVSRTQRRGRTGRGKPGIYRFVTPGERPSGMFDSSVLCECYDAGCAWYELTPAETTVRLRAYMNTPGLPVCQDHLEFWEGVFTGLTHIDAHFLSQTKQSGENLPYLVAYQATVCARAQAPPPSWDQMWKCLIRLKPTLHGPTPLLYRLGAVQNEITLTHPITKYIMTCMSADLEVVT
In the next data set the test system is Vero. Description: viability of Vero cells under compound – cytotoxicity control for flavivirus capping enzyme inhibitors (AID 588742). The conditions noted are these: Chlorocebus sabaeus. In kind it is functional.
Data set [6] addresses T2, Low molecular weight phosphotyrosine protein phosphatase. In kind it is functional. To be noted: read-out: IC50_Mean. The source holds these as a separate data set.
The target in another data set is Genome polyprotein (dengue virus type 2, UniProt P29990). Description: flavivirus cap methylation enzyme inhibition – biochemical, confirmation dose response, primary screen (AID 588689). In kind it is functional.
Chain of Genome polyprotein (P29990 2492-3391 limits assumed): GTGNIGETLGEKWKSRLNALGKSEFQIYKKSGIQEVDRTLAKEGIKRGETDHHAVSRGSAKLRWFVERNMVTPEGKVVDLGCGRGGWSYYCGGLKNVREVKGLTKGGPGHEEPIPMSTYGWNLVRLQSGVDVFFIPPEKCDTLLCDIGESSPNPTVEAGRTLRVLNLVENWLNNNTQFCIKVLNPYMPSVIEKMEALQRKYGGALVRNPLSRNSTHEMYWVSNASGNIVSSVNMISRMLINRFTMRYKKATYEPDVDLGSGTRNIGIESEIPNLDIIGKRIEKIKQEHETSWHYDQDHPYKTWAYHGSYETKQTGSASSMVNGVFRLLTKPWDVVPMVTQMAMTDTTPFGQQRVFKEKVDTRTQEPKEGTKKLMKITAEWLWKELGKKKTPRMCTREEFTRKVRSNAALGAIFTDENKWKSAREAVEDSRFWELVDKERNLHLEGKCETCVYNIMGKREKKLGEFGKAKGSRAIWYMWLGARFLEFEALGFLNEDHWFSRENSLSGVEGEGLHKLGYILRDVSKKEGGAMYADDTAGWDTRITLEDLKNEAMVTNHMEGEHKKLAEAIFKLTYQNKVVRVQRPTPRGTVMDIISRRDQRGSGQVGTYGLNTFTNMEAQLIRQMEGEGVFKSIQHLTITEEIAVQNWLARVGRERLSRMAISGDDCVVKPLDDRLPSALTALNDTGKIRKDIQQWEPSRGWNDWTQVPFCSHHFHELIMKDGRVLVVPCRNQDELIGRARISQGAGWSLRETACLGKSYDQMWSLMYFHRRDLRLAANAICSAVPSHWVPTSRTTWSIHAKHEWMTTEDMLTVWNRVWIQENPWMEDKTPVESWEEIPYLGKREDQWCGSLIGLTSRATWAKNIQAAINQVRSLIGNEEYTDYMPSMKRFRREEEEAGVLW
Data set [7] concerns the target NAD-dependent protein deacylase sirtuin-5, mitochondrial (Homo sapiens, UniProt Q9NXA8). The experiment in a line: sirtuin-5 deacylation blockers, concentration series – biochemical, fluorescence imaging, cherry-pick, set 5, dose response (AID 720591).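 Further: desuccinylation of succinyl peptide AMC substrate read as fluorescence after trypsin release; potency of inhibitors that lower fluorescence and may act on trypsin instead.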
In data set [8] the target is T4, Nucleotide-binding oligomerization domain-containing protein 1 (Homo sapiens, UniProt Q9Y239).
T4 sequence (Q9Y239 whole entry): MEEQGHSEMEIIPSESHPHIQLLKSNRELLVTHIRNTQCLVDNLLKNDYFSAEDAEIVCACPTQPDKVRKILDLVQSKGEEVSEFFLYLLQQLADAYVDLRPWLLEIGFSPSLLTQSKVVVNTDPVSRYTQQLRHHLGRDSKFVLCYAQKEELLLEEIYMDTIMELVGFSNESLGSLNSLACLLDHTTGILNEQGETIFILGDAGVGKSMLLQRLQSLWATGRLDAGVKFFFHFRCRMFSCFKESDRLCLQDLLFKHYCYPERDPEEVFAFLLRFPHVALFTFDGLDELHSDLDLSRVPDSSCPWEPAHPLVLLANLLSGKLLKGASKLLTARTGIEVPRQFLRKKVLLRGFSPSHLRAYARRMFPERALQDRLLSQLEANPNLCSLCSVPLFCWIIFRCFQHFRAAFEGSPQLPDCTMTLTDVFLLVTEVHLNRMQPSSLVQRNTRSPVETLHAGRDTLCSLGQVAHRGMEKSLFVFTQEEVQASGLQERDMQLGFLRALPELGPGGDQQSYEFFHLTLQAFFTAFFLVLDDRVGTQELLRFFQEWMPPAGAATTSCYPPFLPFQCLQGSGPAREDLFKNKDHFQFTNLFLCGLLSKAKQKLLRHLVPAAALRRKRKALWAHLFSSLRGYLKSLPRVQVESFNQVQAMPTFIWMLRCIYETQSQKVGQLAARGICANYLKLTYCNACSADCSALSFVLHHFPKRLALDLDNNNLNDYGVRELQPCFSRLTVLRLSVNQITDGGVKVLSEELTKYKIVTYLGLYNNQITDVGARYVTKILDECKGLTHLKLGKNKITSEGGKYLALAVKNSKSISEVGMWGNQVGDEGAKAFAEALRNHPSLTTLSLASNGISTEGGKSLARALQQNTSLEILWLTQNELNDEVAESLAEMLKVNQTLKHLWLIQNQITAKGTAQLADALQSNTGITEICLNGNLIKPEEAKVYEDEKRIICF
The experiment in a line: blockers of NOD1 pathway activity – revised, SAR follow-up (AID 2333). In kind it is functional.

Data set [9] has as its target Sphingosine 1-phosphate receptor 2 (Homo sapiens, UniProt O95136). The experiment in a line: Dose Response Cell Based Assay for Antagonists of the S1P2 Receptor. [Related pubchem assays: 856, 736 ]. In kind it is functional.
The target in another data set is Cytochrome P450 3A4 (Homo sapiens, UniProt P08684).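 Further: CYP3A4 tested as one member of a cytochrome P450 panel screen.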
Chain of Cytochrome P450 3A4 (P08684 whole entry): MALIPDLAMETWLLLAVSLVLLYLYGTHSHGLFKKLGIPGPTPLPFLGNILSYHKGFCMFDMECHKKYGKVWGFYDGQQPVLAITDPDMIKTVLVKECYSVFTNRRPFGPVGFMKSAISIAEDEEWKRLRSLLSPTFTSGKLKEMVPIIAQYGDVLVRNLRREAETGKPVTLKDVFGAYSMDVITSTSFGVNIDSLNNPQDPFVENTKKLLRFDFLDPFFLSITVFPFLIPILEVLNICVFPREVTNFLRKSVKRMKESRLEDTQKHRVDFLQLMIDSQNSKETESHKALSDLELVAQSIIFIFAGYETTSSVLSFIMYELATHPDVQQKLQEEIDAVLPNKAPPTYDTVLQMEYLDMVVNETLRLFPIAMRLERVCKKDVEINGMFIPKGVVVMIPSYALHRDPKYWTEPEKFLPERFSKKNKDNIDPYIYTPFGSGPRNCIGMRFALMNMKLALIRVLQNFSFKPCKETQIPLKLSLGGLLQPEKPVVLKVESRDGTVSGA
A further data set relates to HEK293. Description: cells. To be noted: Homo sapiens.
A short description of data set [10]: HEK-293T viability loss after treatment – luminescence, T-cell screen hits, cytotoxicity control for TCR NF-kB inhibitor project, dose response (AID 489026).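 Further: cells exposed to compound about 14 hours before the viability readout.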 In kind it is functional, cell-based.
Another data set deals with Tumor necrosis factor (Homo sapiens, UniProt P01375). Description: analog potency on TNFa NF-kB signaling – cell-based, revised, SAR follow-up (AID 2337). In kind it is functional.
Chain of Tumor necrosis factor (P01375 whole entry, the tested form may be a part): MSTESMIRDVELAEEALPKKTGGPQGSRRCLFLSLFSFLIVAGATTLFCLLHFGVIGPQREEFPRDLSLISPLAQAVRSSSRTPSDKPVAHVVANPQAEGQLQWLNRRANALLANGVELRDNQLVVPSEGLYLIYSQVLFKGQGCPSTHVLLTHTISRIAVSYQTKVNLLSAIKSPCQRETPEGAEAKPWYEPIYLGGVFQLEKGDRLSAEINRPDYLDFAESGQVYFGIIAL
Data set [11] concerns the target Disintegrin and metalloproteinase domain-containing protein 17 (Homo sapiens, UniProt P78536). Description: inhibition of ADAM17 substrate cleavage – biochemical, quenched FRET substrate, counter-screen for ADAM10 exosite inhibitor project, dose response (AID 743253).
The target of a further data set is CAAX prenyl protease 2 (Homo sapiens, UniProt Q9Y256). The experiment in a line: inhibition of Ras-converting CAAX protease Rce1 – biochemical, yeast membranes, quenched-peptide fluorescence, cherry-pick, dose response (AID 588849).
Data set [12] can be described thus: NIH3T3 cell viability loss – ATP luminescence, mouse fibroblasts, counter-screen, dose response (AID 2010).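 Further: cells exposed to compound for about 90 hours before reading.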 In kind it is functional, cell-based.
A further data set has as its target CAAX prenyl protease 1 (Saccharomyces cerevisiae S288c, UniProt P47154). The experiment in a line: yeast CAAX protease Ste24 inhibition – biochemical, S. cerevisiae, plate reader, cherry-pick, dose response (AID 488815).
Data set [13] in a line: Trypanosoma cruzi growth suppression in host cells – NIH3T3 host cells, beta-gal luminescence, confirmation (AID 2044).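 Further: intracellular parasites grown in NIH/3T3 mouse fibroblasts as host cells; luminescent beta-galactosidase reporter signal from transgenic T. cruzi replicating inside host cells; inhibitors lower the luminescence signal.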 In kind it is functional, cell-based.
Data set [14] can be described thus: potency of ADAM10 substrate cleavage blockers – biochemical, QFRET, dose response (AID 743254).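 Further: ADAM10 enzyme with the DM2 quenched FRET peptide as substrate; EDANS fluorescence gain as the protease cuts the substrate; inhibitor potency against ADAM10 proteolytic activity.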
The target in another data set is Cytochrome P450 2C19 (Homo sapiens, UniProt P33261). The experiment in a line: Cytochrome panel assay with activity outcomes. Panel member name: p450-cyp2c19 Compounds with AC50 equal or less than 10 uM are considered active. In kind it is functional.
The target of another data set is Cytochrome P450 2D6 (Homo sapiens, UniProt P10635).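 Further: CYP2D6 member of a cytochrome P450 panel assay.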
Chain of Cytochrome P450 2D6 (P10635 whole entry): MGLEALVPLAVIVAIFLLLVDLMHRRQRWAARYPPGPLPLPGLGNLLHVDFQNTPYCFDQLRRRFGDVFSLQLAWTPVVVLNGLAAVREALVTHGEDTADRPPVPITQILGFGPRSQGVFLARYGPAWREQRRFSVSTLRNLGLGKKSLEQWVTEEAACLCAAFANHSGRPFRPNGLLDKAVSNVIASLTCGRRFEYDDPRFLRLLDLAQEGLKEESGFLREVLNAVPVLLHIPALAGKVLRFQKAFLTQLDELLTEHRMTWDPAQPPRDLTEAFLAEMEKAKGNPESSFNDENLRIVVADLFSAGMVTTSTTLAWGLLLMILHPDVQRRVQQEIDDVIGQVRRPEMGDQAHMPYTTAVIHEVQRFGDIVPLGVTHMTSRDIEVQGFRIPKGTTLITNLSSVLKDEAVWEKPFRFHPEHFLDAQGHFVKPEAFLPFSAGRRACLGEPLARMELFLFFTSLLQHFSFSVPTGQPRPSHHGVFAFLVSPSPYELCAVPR
Data set [15] in a line: viability loss of HMLE_sh_eGFP cells – cell-based, luminescence, counter-screen for HMLE_sh_ECad selective toxicity project, dose response (AID 463074).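 Further: HMLE human mammary epithelial cells expressing control shRNA against eGFP.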 In kind it is functional, Homo sapiens.
The nature of data set [16]: Luminescence Cell-Based Dose Retest to Confirm Inhibitors of Cancer Stem Cells. [Related pubchem assays (depositor defined):AID2717, AID2721]. In kind it is functional. To be noted: Homo sapiens.

Chain of CAAX prenyl protease 1 (P47154 whole entry): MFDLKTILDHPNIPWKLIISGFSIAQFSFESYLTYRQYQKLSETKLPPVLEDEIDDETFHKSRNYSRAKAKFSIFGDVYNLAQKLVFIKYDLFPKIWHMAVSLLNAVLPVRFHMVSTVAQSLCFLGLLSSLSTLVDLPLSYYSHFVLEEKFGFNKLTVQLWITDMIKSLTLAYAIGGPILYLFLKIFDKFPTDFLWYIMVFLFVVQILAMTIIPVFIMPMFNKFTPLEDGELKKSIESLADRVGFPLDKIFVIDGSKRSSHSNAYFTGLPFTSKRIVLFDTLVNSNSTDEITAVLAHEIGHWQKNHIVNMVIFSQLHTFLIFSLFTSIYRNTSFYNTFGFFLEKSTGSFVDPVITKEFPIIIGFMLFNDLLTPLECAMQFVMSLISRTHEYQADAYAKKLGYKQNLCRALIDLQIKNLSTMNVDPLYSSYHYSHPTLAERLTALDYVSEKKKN
Chain of NAD-dependent protein deacylase sirtuin-5, mitochondrial (Q9NXA8 whole entry, the tested form may be a part): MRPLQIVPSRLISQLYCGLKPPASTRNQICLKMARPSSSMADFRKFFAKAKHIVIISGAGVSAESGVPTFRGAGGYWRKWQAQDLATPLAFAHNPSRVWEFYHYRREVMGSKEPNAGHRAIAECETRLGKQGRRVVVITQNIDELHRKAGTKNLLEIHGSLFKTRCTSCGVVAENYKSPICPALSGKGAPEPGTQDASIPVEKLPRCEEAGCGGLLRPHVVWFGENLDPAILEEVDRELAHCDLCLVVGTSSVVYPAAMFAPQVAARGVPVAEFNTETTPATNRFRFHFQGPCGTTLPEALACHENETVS
Chain of Disintegrin and metalloproteinase domain-containing protein 17 (P78536 whole entry, the tested form may be a part): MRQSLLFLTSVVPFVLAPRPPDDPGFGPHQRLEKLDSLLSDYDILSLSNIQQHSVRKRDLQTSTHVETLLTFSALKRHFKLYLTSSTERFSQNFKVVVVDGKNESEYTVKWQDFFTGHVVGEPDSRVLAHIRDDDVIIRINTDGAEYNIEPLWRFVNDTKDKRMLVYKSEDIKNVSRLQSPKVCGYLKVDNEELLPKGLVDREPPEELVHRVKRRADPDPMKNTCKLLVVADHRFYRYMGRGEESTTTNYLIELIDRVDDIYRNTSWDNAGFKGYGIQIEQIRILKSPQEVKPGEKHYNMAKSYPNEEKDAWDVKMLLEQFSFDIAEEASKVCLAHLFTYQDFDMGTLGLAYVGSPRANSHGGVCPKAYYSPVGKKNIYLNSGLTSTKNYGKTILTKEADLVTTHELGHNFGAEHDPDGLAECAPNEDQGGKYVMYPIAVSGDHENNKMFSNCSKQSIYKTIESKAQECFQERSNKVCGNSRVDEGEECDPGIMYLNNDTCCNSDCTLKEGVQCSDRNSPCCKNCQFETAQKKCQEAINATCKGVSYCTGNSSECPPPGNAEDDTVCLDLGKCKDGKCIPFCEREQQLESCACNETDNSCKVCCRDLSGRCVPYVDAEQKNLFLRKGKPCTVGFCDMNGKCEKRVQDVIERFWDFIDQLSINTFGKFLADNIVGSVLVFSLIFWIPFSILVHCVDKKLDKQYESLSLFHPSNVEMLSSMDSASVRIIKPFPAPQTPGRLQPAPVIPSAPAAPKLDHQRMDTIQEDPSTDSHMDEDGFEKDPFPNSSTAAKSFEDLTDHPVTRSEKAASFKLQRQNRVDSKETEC
Chain of Sphingosine 1-phosphate receptor 2 (O95136 whole entry): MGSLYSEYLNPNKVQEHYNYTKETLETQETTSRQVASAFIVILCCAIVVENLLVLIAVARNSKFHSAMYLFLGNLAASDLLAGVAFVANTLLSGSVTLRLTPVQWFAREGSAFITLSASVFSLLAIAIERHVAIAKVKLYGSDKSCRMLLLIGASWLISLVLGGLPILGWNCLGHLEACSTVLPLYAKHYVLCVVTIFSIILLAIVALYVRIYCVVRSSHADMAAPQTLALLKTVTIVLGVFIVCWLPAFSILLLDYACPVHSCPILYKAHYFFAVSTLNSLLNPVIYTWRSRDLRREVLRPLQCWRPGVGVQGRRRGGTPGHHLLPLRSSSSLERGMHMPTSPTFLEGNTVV

With `CC(C)(C)c1ccc(OCCCNCc2ccccc2)cc1`, the AC50 in data set [1] was 18.4 µM (active); in the data set with A-375, 29.7 µM (active).
Take `Cc1cc(N2C(=O)C(O)=C(C(=O)c3ccc(C)o3)C2c2ccc(OCc3ccccc3)cc2)no1` (configuration not stated): the IC50 was > 80 µM (inactive) in data set [2]; 8.93 µM (active) in data set [3]; 28.9 µM (active) in data set [4]; 1.74 µM (active) on NS3; 2.98 µM (active) in data set [6]; > 100 µM (active) at Genome polyprotein. For the same molecule, the CC50 in data set [5] is > 100 µM (inactive); in the data set on Vero, > 40 µM (active). Besides, the AC50 in data set [7] was > 30 µM (inactive).
Consider `O=C(Nc1ccc(S(=O)(=O)N2CCOCC2)cc1)c1ccc(CN2CCc3ccccc3C2)cc1`, for which the IC50 in [8] was 0.347 µM (active); in data set [9], 3.77 µM (active); with HEK293, 5.46 µM (active); in [10], > 80 µM (inactive); at Tumor necrosis factor, 0.627 µM (active). The AC50 entry on Cytochrome P450 3A4 is “inconclusive”.
Regarding `NC(=O)[C@@H]1CC2(CC(c3cccc(NC(=O)CC(c4ccccc4)c4ccccc4)c3)=NO2)CN1C(=O)c1ccc(Cl)cc1` (some centres not stated), the IC50 in [11] is > 69.5 µM (inactive); in [14], > 7.72 µM (active). The AC50 is 41.7 µM (active) at CAAX prenyl protease 2 and 5.27 µM (active) at CAAX prenyl protease 1. In addition, the EC50 is > 60 µM (not active) in [12] and 0.619 µM (active) in data set [13].
As for `CC[C@@]1([N+](=O)[O-])C[C@H]2C=C[C@@H]1C2.CC[C@@]1([N+](=O)[O-])C[C@H]2C=C[C@@H]1C2`, the AC50 entry on Cytochrome P450 2C19 and on Cytochrome P450 2D6 was “inconclusive” in each case.
As to `COc1cc(F)cc(-c2ccc3c(c2)c(-c2cccs2)c(-c2cc(OC)cc(OC)c2)n3C)c1`, the AC50 in data set [15] is 26.5 µM (active); in data set [16] it was 16.5 µM (active).
